The values that follow come from patent US12344610B2, “APOL1 inhibitors and methods of use” (Maze Therapeutics, Inc., priority 2022, dated 2025).

Each structure is given as a SMILES string. pEC50: −log10 of the molar value.

Test [1] concerns the target T1, APOL1 G2 (Homo sapiens, UniProt O14791, DEL388-389).
T1 construct: expressed in transfected cells; host or cells: HEK293 T-REx clonal line stably expressing GCaMP6f (HEK T-REx/GCaMP6f/APOL1 G2 K6.3), doxycycline induced
T1 sequence (O14791 with tags, fused parts or gaps DEL388-389): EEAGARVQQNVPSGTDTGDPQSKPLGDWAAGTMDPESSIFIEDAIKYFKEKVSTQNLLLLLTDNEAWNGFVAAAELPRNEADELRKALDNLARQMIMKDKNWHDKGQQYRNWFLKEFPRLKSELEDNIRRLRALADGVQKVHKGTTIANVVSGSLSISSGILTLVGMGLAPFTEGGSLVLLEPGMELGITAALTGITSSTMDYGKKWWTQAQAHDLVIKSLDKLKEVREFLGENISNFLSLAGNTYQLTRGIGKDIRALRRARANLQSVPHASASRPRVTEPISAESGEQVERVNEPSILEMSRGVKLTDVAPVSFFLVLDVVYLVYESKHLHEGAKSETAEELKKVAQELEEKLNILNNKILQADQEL
Briefly: APOL1-mediated calcium transport (calcium influx) assay, HEK T-REx/GCaMP6f/APOL1 G2 K6.3 cells, FLIPR TETRA. The class given is cell-based. To be noted: prevention of calcium influx; geometric mean of at least 2 assay runs; † = average of a technical replicate from a single assay run. The essentials:
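A HEK293 T-REx clone stably expressing GCaMP6f had APOL1 G2 induced with doxycycline (20 ng/mL solution added) for 6 h. Cells were then washed into Ca2+-free Tyrode's buffer (pH 7.4) and preincubated with compounds (duplicate 8-point) for 10 min at room temperature. Ca2+ injection to 5 mM final produced FLIPR GCaMP fluorescence, giving AC50 for influx inhibition (geometric mean, ≥2 runs).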

Test [2] concerns HEK293 clonal cell line overexpressing APOL1 G1. Description: APOL1 G1 HEK293 cell rescue assay (Example B3). The class given is cell-based. The conditions noted are these: geometric mean of at least 2 runs, † = single run, ¥ = concentration at 50% rescue estimated (no sigmoidal curve). The gist of the method:
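Rescue of cell death caused by APOL1 G1 overexpression was measured in a clonal HEK293 line. Compounds were tested in duplicate on one plate, and EC50s were geometric means across at least two runs on different days. Some values are estimated 50%-rescue concentrations where curve fitting failed.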

[3] abbreviates: Homo sapiens, HEK293, HEK293 clonal line overexpressing APOL1 G1.

As to `CCS(=O)(=O)C1(c2ccc(OCCN3CCC4(CC3)C(=O)Nc3ccc(C#N)cc34)cc2)COC1` [Compound 174, 1′-(2-{4-[3-(ethanesulfonyl)oxetan-3-yl]phenoxy}ethyl)-2-oxo-1,2-dihydrospiro[indole-3,4′-piperidine]-5-carbonitrile], in test [1], the AC50 turned out to be 484 nM. In addition, the pEC50 in test [2] (setting [3]) is 6.60.
Turning to `CN1C(=O)Cc2cc(OCCN3CCC4(CC3)C(=O)Nc3ccc(C#N)cc34)cc(F)c21` [Compound 169, 1′-{2-[(7-fluoro-1-methyl-2-oxo-2,3-dihydro-1H-indol-5-yl)oxy]ethyl}-2-oxo-1,2-dihydrospiro[indole-3,4′-piperidine]-5-carbonitrile], the AC50 in test [1] was 1210 nM. The pEC50 in test [2] (setting [3]) was 5.99.
As for `CS(=O)(=O)C1(c2c(F)cc(OCCN3CCC4(CC3)C(=O)Nc3ccc(Cl)cc34)cc2F)COC1` [Compound 136, 5-chloro-1′-{2-[3,5-difluoro-4-(3-methanesulfonyloxetan-3-yl)phenoxy]ethyl}-1,2-dihydrospiro[indole-3,4′-piperidin]-2-one], the AC50 in test [1] worked out at 800 nM. Moreover, in test [2] (setting [3]), the negative logarithm of the EC50 (pEC50) is 7.31.
With `CS(=O)(=O)C1(c2ccc(OCCN3CCC4(CC3)C(=O)N(CCO)c3ccc(Cl)cc34)cc2)COC1` [Compound 160, 5-chloro-1-(2-hydroxyethyl)-1′-{2-[4-(3-methanesulfonyloxetan-3-yl)phenoxy]ethyl}-1,2-dihydrospiro[indole-3,4′-piperidin]-2-one], in test [1], the AC50 was 898 nM. The pEC50 in test [2] (setting [3]) is 6.61.
The corresponding values for `O=C1CCC2c3ccc(OCCN4CCC5(CC4)C(=O)Nc4ccc(Cl)cc45)cc3CCN12` (single isomer, unassigned) [Compound 122, (S) or (R)-5-chloro-1′-[2-({3-oxo-1H,2H,3H,5H,6H,10bH-pyrrolo[2,1-a]isoquinolin-8-yl}oxy)ethyl]-1,2-dihydrospiro[indole-3,4′-piperidin]-2-one] are 616 nM and 6.73.
On to `O=C1CCc2cc(OCCN3CCC4(CC3)C(=O)Nc3ccc(Cl)cc34)ccc2N1CC(F)F` [Compound 106, 5-chloro-1′-(2-{[1-(2,2-difluoroethyl)-2-oxo-1,2,3,4-tetrahydroquinolin-6-yl]oxy}ethyl)-1,2-dihydrospiro[indole-3,4′-piperidin]-2-one], for which, in test [1], the AC50 is 756 nM. Moreover, the pEC50 in test [2] (setting [3]) was 6.91.
Consider `CN1Cc2cc(OCCN3CCC4(CC3)C(=O)Nc3ccc(Cl)cc34)ccc2C1=O` [Compound 146, 5-chloro-1′-{2-[(2-methyl-1-oxo-2,3-dihydro-1H-isoindol-5-yl)oxy]ethyl}-1,2-dihydrospiro[indole-3,4′-piperidin]-2-one], for which the AC50 in test [1] came out at 279 nM. Moreover, the pEC50 in test [2] (setting [3]) is 6.66.
For `CC(c1c(F)cc(OCCN2CCC3(CC2)C(=O)Nc2ccc(Cl)cc23)cc1F)S(C)(=O)=O` (single isomer, unassigned) [Compound 142, (S) or (R)-5-chloro-1′-{2-[3,5-difluoro-4-(1-methanesulfonylethyl)phenoxy]ethyl}-1,2-dihydrospiro[indole-3,4′-piperidin]-2-one], in test [1], the AC50 turned out to be 845 nM. In test [2] (setting [3]), the pEC50 was 6.72.
With `CS(=O)(=O)c1ccc(OCCN2CCC3(CC2)C(=O)Nc2ccc(C#N)cc23)cc1C(F)(F)F` [Compound 107, 1′-{2-[4-methanesulfonyl-3-(trifluoromethyl)phenoxy]ethyl}-2-oxo-1,2-dihydrospiro[indole-3,4′-piperidine]-5-carbonitrile], in test [1], the AC50 stood at 712 nM. Also, the pEC50 in test [2] (setting [3]) is 6.92.
The matching figures for `O=C1Nc2ccc(Cl)cc2C12CCN(CCOc1ccc(C3CCCS3(=O)=O)cc1)CC2` (single isomer, unassigned) [Compound 176, (S) or (R)-2-[4-(2-{5-chloro-2-oxo-1,2-dihydrospiro[indole-3,4′-piperidin]-1′-yl}ethoxy)phenyl]-1λ^6-thiolane-1,1-dione]: 547 nM and 6.80.
As to `CN=S(C)(=O)c1ccc(OCCN2CCC3(CC2)C(=O)Nc2ccc(C#N)cc23)cc1` (centres unmarked) [Compound 150, 1′-(2-{4-[methyl(methylimino)oxo-λ^6-sulfanyl]phenoxy}ethyl)-2-oxo-1,2-dihydrospiro[indole-3,4′-piperidine]-5-carbonitrile], the half-maximal activity concentration (AC50) in test [1] was 629 nM. Moreover, the pEC50 in test [2] (setting [3]) was 5.81.
Consider `N#Cc1ccc2c(c1)C1(CCN(CCOc3ccc4c(c3)CCNS4(=O)=O)CC1)C(=O)N2` [Compound 168, 1′-{2-[(1,1-dioxo-3,4-dihydro-2H-1λ^6,2-benzothiazin-6-yl)oxy]ethyl}-2-oxo-1,2-dihydrospiro[indole-3,4′-piperidine]-5-carbonitrile], for which the AC50 in test [1] amounted to 1390 nM. In addition, the pEC50 in test [2] (setting [3]) is less than 5.11.
The matching figures for `O=C1CCc2cc(OCCN3CCC4(CC3)C(=O)Nc3ccc(Cl)cc34)ccc2N1[C@H]1C[C@@H](O)C1` [Compound 114, 5-chloro-1′-[2-({2-oxo-1-[(cis)-3-hydroxycyclobutyl]-1,2,3,4-tetrahydroquinolin-6-yl}oxy)ethyl]-1,2-dihydrospiro[indole-3,4′-piperidin]-2-one]: 529 nM and 6.89.
The matching figures for `CN1c2ccc(OCCN3CCC4(CC3)C(=O)Nc3ccc(Cl)cc34)cc2CCS1(=O)=O` [Compound 103, 6-(2-{5-chloro-2-oxo-1,2-dihydrospiro[indole-3,4′-piperidin]-1′-yl}ethoxy)-1-methyl-3,4-dihydro-1H-2λ^6,1-benzothiazine-2,2-dione]: 591 nM and 6.91.
The corresponding values for `C[C@@H](COc1ccc(S(C)(=O)=O)cc1)N1CCC2(CC1)C(=O)Nc1ccc(Cl)cc12` (single isomer, unassigned) [Compound 10] are 1270 nM and 6.35.
As for `CN=S(C)(=O)c1ccc(OCCN2CCC3(CC2)C(=O)Nc2ccc(Cl)cc23)cc1` (single isomer, unassigned) [Compound 148, (S) or (R)-5-chloro-1′-(2-{4-[methyl(methylimino)oxo-λ^6-sulfanyl]phenoxy}ethyl)-1,2-dihydrospiro[indole-3,4′-piperidin]-2-one], the AC50 in test [1] is 960 nM. The pEC50 in test [2] (setting [3]) is 6.55.
Take `CN(c1c(F)cc(OCCN2CCC3(CC2)C(=O)Nc2ccc(C#N)cc23)cc1F)S(C)(=O)=O` [Compound 128, N-[4-(2-{5-cyano-2-oxo-1,2-dihydrospiro[indole-3,4′-piperidin]-1′-yl}ethoxy)-2,6-difluorophenyl]-N-methylmethanesulfonamide]: the AC50 in test [1] was determined as 537 nM. For the same molecule, in test [2] (setting [3]), the pEC50 was 6.80.
The matching figures for `CS(=O)(=O)C1(c2ccc(OCCN3CCC4(CC3)C(=O)Nc3ccc(C#N)cc34)cc2)CC1` [Compound 101, 1′-{2-[4-(1-methanesulfonylcyclopropyl)phenoxy]ethyl}-2-oxo-1,2-dihydrospiro[indole-3,4′-piperidine]-5-carbonitrile]: 634 nM and 6.61.
Take `O=C1NCC2c3ccc(OCCN4CCC5(CC4)C(=O)Nc4ccc(Cl)cc45)cc3CCN12` (single isomer, unassigned) [Compound 117, (R) or (S)-5-chloro-1′-[2-({3-oxo-1H,2H,3H,5H,6H,10bH-imidazo[4,3-a]isoquinolin-8-yl}oxy)ethyl]-1,2-dihydrospiro[indole-3,4′-piperidin]-2-one]: the AC50 in test [1] is 396 nM. Also, the pEC50 in test [2] (HEK293 clonal line overexpressing APOL1 G1) was 6.76.
For `CS(=O)(=O)c1ccc(OCCN2CCC3(CC2)C(=O)Nc2ccc(C#N)cc23)cc1OC(F)F` [Compound 164, 1′-{2-[3-(difluoromethoxy)-4-methanesulfonylphenoxy]ethyl}-2-oxo-1,2-dihydrospiro[indole-3,4′-piperidine]-5-carbonitrile], in test [1], the AC50 is 555 nM. Besides, the pEC50 in test [2] (setting [3]) was 6.50.
The corresponding values for `O=C1CCc2cc(OCCN3CCC4(CC3)C(=O)Nc3ccc(Cl)cc34)ccc2N1CCO` [Compound 162, 5-chloro-1′-(2-{[1-(2-hydroxyethyl)-2-oxo-1,2,3,4-tetrahydroquinolin-6-yl]oxy}ethyl)-1,2-dihydrospiro[indole-3,4′-piperidin]-2-one] are 603 nM and 6.76.
The matching figures for `CC(c1c(F)cc(OCCN2CCC3(CC2)C(=O)Nc2ccc(C#N)cc23)cc1F)S(C)(=O)=O` (single isomer, unassigned) [Compound 138, (S) or (R)-1′-{2-[3,5-difluoro-4-(1-methanesulfonylethyl)phenoxy]ethyl}-2-oxo-1,2-dihydrospiro[indole-3,4′-piperidine]-5-carbonitrile]: 1220 nM and 6.60.
